Several values for one entry are separate records, joined by “and”; a condition that tells them apart may be missing. Equal entries are not always repeated.
Test system: ICR derived female immature mice
Experiment: Protocol # 531000 Estrogenic Agonism in Mice (uterine wet weight)
Assay type: in vivo
Settings: 0.03 mg/kg PO; for % Increase in uterine wet weight: compared with historical vehicle control (16.5 mg)
Description: Tahitian Noni® Puree Juice Concentrate (TNPJC) dry form was evaluated for possible estrogenic agonism is ICT derived immature female mice at a maximum tolerated dose of 4000 mg/kg administered orally once daily for 3 consecutive days. The dry form of TNPJC resulted from using a Rotor Vap with pressure and low temperature.
Test substance TNCONC was evaluated for possible Estrogenic Agonism in ICR derived female immature mice at a maximum tolerated dose of 4000 mg/kg administered orally once daily for 3 consecutive days.
1. Test Substances and Dosing Pattern—TNCONC, provided by Morinda, Inc., was dissolved in 2% Tween 80/0.9% NaCl. For testing, a maximum tolerated dose of 4000 mg/kg was administered […] daily for 3 consecutive days, and a dosing volume of 10 ml/kg was used.
2. Animals—Female ICR mice provided by MDS Pharma Services—Taiwan Ltd. were used. Space allocation for 5 animals was 29×18×13 cm. Animals were housed in APEC^R cages and maintained in a controlled temperature (22° C.-24° C.) and humidity (60%-80%) environment with 12 hours light dark cycles for at least one week in MDS Pharma Services—Taiwan Laboratory prior to use. Free access to standard lab chow for rats (Lab Diet, Rodent Diet, PMI Nutrition International, USA) and tap water was granted. All aspects of this work including housing, experimentation and disposal of animals were performed in general accordance with the International Guiding Principles for Biomedical Research Involving Animals (CIOMS Publication No. ISBN 92 90360194, 1985),
Test substance was administered at a maximum tolerated dose of 4000 mg/kg IP for three consecutive days to a group of 5 ICR derived immature female mice weighing 13±1 g. The animals were sacrificed 24 hours after the final dose and wet weight of the uterus of each animal was measured. A 50 percent or more (≧50%) increase in uterine wet weight relative to control group of animals indicates possible estrogen agonist activity.
A vehicle or test substance was administered IP for three consecutive days to female immature mice weighing 13±1 g. The animals were sacrificed 24 hours after the final dose and wet weight of the uterus of each animal was determined. A 50 percent or more (≧50%) increase in uterine wet weight relative to the vehicle treated group of animals, shown in parenthesis, indicates possible estrogen agonist activity.

C[C@]12CC[C@@H]3c4ccc(OC(=O)c5ccccc5)cc4CC[C@H]3[C@@H]1CC[C@@H]2O [β-Estradiol 3-Benzoate]
Weight of Uterus, Average: 30.2 mg | % Increase in uterine wet weight: (83) % | % Increase in uterine wet weight (listed as Estradiol 3-Bensoate): dramatic increase | % Increase in uterine wet weight (listed as β-Estadiol 3-Benzoate): 83% | Weight of Uterus, Individual (single animals N 1-5): 28.7 mg and 20.7 mg and 31.3 mg and 35.6 mg and 34.9 mg
